Each structure is given as a SMILES string.

For one data set, the system named is Jurkat cell. In words: Inhibition of Jurkat cell proliferation (CTG, intracellular ATP). The data set is classed as cell-based. As to conditions: Homo sapiens, 72 h, compared to DMSO group, read-out: Inhibitory activity against Jurkat cell proliferation (IC50). The protocol:
(§1) Jurkat or 293T cells were seeded into a 96-well plate at 3000 cells/well. After overnight adherence culture, the serially diluted compound in DMSO was added. After 72 h, the intracellular ATP level was determined by CTG. The IC50 for the inhibition of cell proliferation by the compounds was calculated compared to the DMSO group. Table 8. Inhibitory activity of compounds of the present disclosure against Jurkat/293T cell proliferation (IC50, µM)

Data set [1] is described as follows: Pharmacokinetic experiment in mice. It counts as in vivo, CD-1 female mice. To be noted: female, CD-1, mouse, plasma; for Vd: read-out: Vdss. The protocol: CD-1 female mice aged 7 to 10 weeks were intravenously administered and orally administered at doses of 1 mg/kg and 10 mg/kg, respectively. The mice were fasted for at least 12 h before the administration and given food 4 h after the administration, and they were given ad libitum access to water during the experiment.
On the day of the experiment, animals in the intravenous group were given the corresponding compound by single injection via the tail vein at an administration volume of 10 mL/kg; and animals in the oral group were given the corresponding compound by single intragastric injection at an administration volume of 10 mL/kg. The animals were weighed before administration, and the administration volume was calculated according to the body weight. The sample collection time points were 0.083 h, 0.167 h, 0.5 h, 1 h, 2 h, 4 h, 8 h, and 24 h. About 200 µL of whole blood was collected through the orbital venous plexus at each time point and used to prepare plasma for concentration determination by high-performance liquid chromatography-tandem mass spectrometry (LC-MS/MS). The plasma concentrations were processed using a non-compartmental model of Winnolin pharmacokinetic software, and the pharmacokinetic parameters were calculated using a linear-log trapezoidal method. Table 13. Results of in vivo pharmacokinetic evaluation of compounds of the present disclosure

Another data set concerns HeLa cells. In words: Intracellular acetyl lysine / H3K 27 acetyl lysine level by ELISA. The data set is classed as cell-based. As to conditions: 24 h of treatment. The protocol:
HeLa cells were seeded into a 96-well plate at 20000 cells/well. After overnight adherence culture, the serially diluted compound was added. After 24 h of treatment, intracellular levels of acetyl lysine and H3K 27 acetyl lysine were quantified by ELISA. Table 9. Effect of compound of the present disclosure on levels of acetyl lysine and H3K 27 acetyl lysine
On the technique in general: ELISA stands for enzyme-linked immunosorbent assay.

In another data set the test system is 293T cell. The data set can be described thus: Inhibition of 293T cell proliferation (CTG, intracellular ATP). It counts as cell-based. As to conditions: Homo sapiens, HEK-293T, 72 h, compared to DMSO group, read-out: Inhibitory activity against 293T cell proliferation (IC50). The protocol: as §1
Data set [2] is described as follows: Stability in liver microsomes. It counts as in vitro ADME. As to conditions: 1 µM compound, NADPH, 37 °C. The protocol: After the 1 µM compound was incubated with 0.5 mg/mL of human or mouse liver microsomes and an NADPH regeneration system at 37 °C for different times, respectively, LC-MS-MS was used to analyze the remaining amount of the compound and calculate T1/2. Table 12. Evaluation results of stability of compounds of the present disclosure in human and mouse liver microsomes

Where [3] appears, read: Injection (1 mg/kg), intravenous.
[4] abbreviates: Human liver microsomes 0.5 mg/mL.
[5] abbreviates: Mouse liver microsomes 0.5 mg/mL.

As usually defined, the AUC(0-t) is the area under the concentration-time curve up to a stated or last time point. A low value points to less exposure. As usually defined, the clearance is the volume of plasma or blood freed of the substance per unit of time. A higher clearance goes with a high capacity for elimination. By half-life is commonly meant how long it takes for the measured level to halve. As a reminder, the Cmax is the maximum level reached in the sampled fluid or tissue. A word on the Tmax: it is the time from dosing to the highest level. What is called bioavailability is the share of a dose that reaches the circulation, judged against a reference dose that is usually intravenous. The low end stands for little systemic uptake, the high end for much systemic uptake. On to `[2H]c1c(F)ccc(NC(=O)c2ccc(CNC(=O)/C=C/c3cccnc3)cc2)c1N` [Compound 2], for which, in the data set on Jurkat cell, the IC50 stood at 1680 nM. Also, in data set [1] (setting [3]), the exposure AUC(0-t) amounted to 441 ng·h/mL, the clearance came to 37.8 mL/min/kg, the half-life is 2.3 h and the Vd was 1.61 L/kg. Moreover, in data set [1] (Oral administration (10 mg/kg)), the exposure AUC(0-t) turned out to be 2160 ng·h/mL, the maximum concentration (Cmax) is 2360 ng/mL, the Tmax is 0.08 h and the bioavailability was 46.5%. For the same molecule, the half-life in data set [1] (Oral administration (10 mg/kg)) is 1.85 h. Further, in the data set with HeLa cells, the “Acetyl lysine Maximum (%)” value was found to be 420%, the “Acetyl lysine Minimum effective concentration” value amounted to 16 nM, the “H3K 27 Acetyl lysine Maximum (%)” value is on record as 360% and the “H3K 27 Acetyl lysine Minimum effective concentration” value is 80 nM. Further, the IC50 in the data set with 293T cell was > 10000 nM.

Regarding `[2H]c1cc(F)cc(N)c1NC(=O)c1ccc(CNC(=O)/C=C/c2cccnc2)cc1` [Compound 3], in the data set on Jurkat cell, the IC50 worked out at 1860 nM. For the same molecule, in data set [1] (setting [3]), the AUC(0-t) was 592 ng·h/mL, the clearance was 28.1 mL/min/kg, the half-life is 2.78 h and the Vd is 0.93 L/kg. In data set [1] (Oral administration (10 mg/kg)), the area under the curve AUC(0-t) was determined as 1770 ng·h/mL, the highest concentration (Cmax) amounted to 2350 ng/mL, the Tmax is 0.08 h and the bioavailability came out at 26.3%. In addition, the half-life in data set [1] (Oral administration (10 mg/kg)) is 2.21 h. Moreover, the IC50 in the data set with 293T cell was determined as 7500 nM.

Broadly, the CLint scaled is the rate of metabolic loss divided by the concentration. Low readings indicate slow turnover, high ones rapid turnover. For the molecule `[2H]c1cc(CNC(=O)/C=C/c2cccnc2)ccc1C(=O)Nc1ccc(F)cc1N` [Compound 4], the IC50 in the data set on Jurkat cell worked out at 1700 nM. In data set [1] (setting [3]), the AUC(0-t) came out at 602 ng·h/mL, the clearance is 27.7 mL/min/kg, the half-life is 3.05 h and the Vd came out at 1.32 L/kg. Further, in data set [1] (Oral administration (10 mg/kg)), the AUC(0-t) is 1710 ng·h/mL, the Cmax amounted to 1740 ng/mL, the time to peak (Tmax) stood at 0.08 h and the bioavailability worked out at 28.5%. Moreover, the half-life in data set [1] (Oral administration (10 mg/kg)) is 3.9 h. Also, the IC50 with 293T cell was found to be 3260 nM. Further, in data set [2] (setting [4]), the CLint scaled at 1 µM is 19.5 mL/min/kg, the “Clliver” value came to 10.03 mL/min/kg and the half-life at 1 µM was determined as 1.49 h. Further, in data set [2] (setting [5]), the CLint scaled at 1 µM was 244 mL/min/kg, the “Clliver” value is on record as 65.74 mL/min/kg and the half-life at 1 µM is 0.373 h.

In the case of `[2H]/C(=C\C(=O)NCc1ccc(C(=O)Nc2ccc(F)cc2N)cc1)c1cccnc1` [Compound 8], in the data set on Jurkat cell, the IC50 is 1580 nM. Moreover, in data set [1] (setting [3]), the AUC(0-t) was 903 ng·h/mL, the clearance was 36.9 mL/min/kg, the half-life was 1.01 h and the Vd turned out to be 1.21 L/kg. In data set [1] (Oral administration (10 mg/kg)), the AUC(0-t) turned out to be 1430 ng·h/mL, the Cmax amounted to 824 ng/mL, the time to peak (Tmax) was 0.08 h and the bioavailability was 29.6%. In data set [1] (Oral administration (10 mg/kg)), the half-life is 1.87 h. Besides, in the data set with 293T cell, the IC50 was found to be 4010 nM. Besides, in data set [2] (setting [4]), the CLint scaled at 1 µM is 18.4 mL/min/kg, the “Clliver” value is 9.73 mL/min/kg and the half-life at 1 µM worked out at 1.58 h. Further, in data set [2] (setting [5]), the CLint scaled at 1 µM worked out at 285 mL/min/kg, the “Clliver” value is on record as 68.41 mL/min/kg and the half-life at 1 µM turned out to be 0.319 h.

As to `[2H]c1ncccc1/C=C/C(=O)NCc1ccc(C(=O)Nc2ccc(F)cc2N)cc1` [Compound 9], the IC50 in the data set on Jurkat cell came out at 1080 nM. In data set [1] (setting [3]), the AUC(0-t) was 1000 ng·h/mL, the clearance stood at 16.6 mL/min/kg, the half-life was 1.48 h and the Vd was determined as 0.44 L/kg. Further, in data set [1] (Oral administration (10 mg/kg)), the AUC(0-t) came out at 1050 ng·h/mL, the concentration peaked (Cmax) at 1640 ng/mL, the time to peak (Tmax) worked out at 0.17 h and the bioavailability came to 10.5%. This molecule also showed a half-life in data set [1] (Oral administration (10 mg/kg)) of 1.21 h. In addition, the IC50 in the data set with 293T cell came out at 5180 nM. Besides, in data set [2] (setting [4]), the CLint scaled at 1 µM turned out to be 4.59 mL/min/kg, the “Clliver” value came to 3.75 mL/min/kg and the half-life at 1 µM worked out at 6.32 h. Besides, in data set [2] (setting [5]), the CLint scaled at 1 µM came out at 118 mL/min/kg, the “Clliver” value turned out to be 50.99 mL/min/kg and the half-life at 1 µM was 0.773 h.

For `[2H]c1cncc(/C=C/C(=O)NCc2ccc(C(=O)Nc3ccc(F)cc3N)cc2)c1` [Compound 11], the IC50 with Jurkat cell was found to be 950 nM. In data set [1] (setting [3]), the area under the curve AUC(0-t) was found to be 733 ng·h/mL, the clearance was determined as 22.7 mL/min/kg, the half-life is 1.79 h and the Vd was determined as 0.62 L/kg. Besides, in data set [1] (Oral administration (10 mg/kg)), the exposure AUC(0-t) was 1330 ng·h/mL, the Cmax turned out to be 2370 ng/mL, the Tmax stood at 0.08 h and the bioavailability stood at 18.2%. The molecule also had a half-life in data set [1] (Oral administration (10 mg/kg)) of 1.19 h. In the data set with HeLa cells, the “Acetyl lysine Maximum (%)” value worked out at 450%, the “Acetyl lysine Minimum effective concentration” value was found to be 80 nM, the “H3K 27 Acetyl lysine Maximum (%)” value is 460% and the “H3K 27 Acetyl lysine Minimum effective concentration” value turned out to be 80 nM. For the same molecule, the IC50 with 293T cell worked out at 5160 nM. Besides, in data set [2] (setting [4]), the intrinsic metabolic clearance (CLint scaled) at 1 µM amounted to 23.7 mL/min/kg, the “Clliver” value amounted to 11.04 mL/min/kg and the half-life at 1 µM amounted to 1.22 h. Also, in data set [2] (setting [5]), the intrinsic metabolic clearance (CLint scaled) at 1 µM worked out at 231 mL/min/kg, the “Clliver” value was found to be 64.76 mL/min/kg and the half-life at 1 µM is 0.394 h.

Regarding `[2H]c1ccc(/C=C/C(=O)NCc2ccc(C(=O)Nc3ccc(F)cc3N)cc2)cn1` [Compound 12], in the data set on Jurkat cell, the IC50 came to 1590 nM. Moreover, in data set [1] (setting [3]), the AUC(0-t) came out at 514 ng·h/mL, the clearance worked out at 32.4 mL/min/kg, the half-life was 1.17 h and the Vd was determined as 0.71 L/kg. In data set [1] (Oral administration (10 mg/kg)), the AUC(0-t) was 1610 ng·h/mL, the concentration peaked (Cmax) at 2080 ng/mL, the time to peak (Tmax) came to 0.17 h and the bioavailability worked out at 30.5%. In data set [1] (Oral administration (10 mg/kg)), the half-life is 1.93 h. Also, the IC50 with 293T cell was 5310 nM. Besides, in data set [2] (setting [4]), the CLint scaled at 1 µM worked out at 2.87 mL/min/kg, the “Clliver” value amounted to 2.52 mL/min/kg and the half-life at 1 µM stood at 10.1 h. In addition, in data set [2] (setting [5]), the CLint scaled at 1 µM is 108 mL/min/kg, the “Clliver” value is reported as 49.05 mL/min/kg and the half-life at 1 µM was determined as 0.844 h.

Source of the values: patent EP4631931A1, “HDAC INHIBITOR AND USE THEREOF” (Wigen Biomedicine Technology (Shanghai) Co., Ltd., priority 2022, dated 2024).
